{"source": "paper PMC11859928", "about": "“Design, Synthesis, and Antiproliferative Activity of Novel Indole/1,2,4-Triazole Hybrids as Tubulin Polymerization Inhibitors” (Pharmaceuticals, 2025)", "type_in_all_cases": "cell-based, human", "key": {"CCRF-CEM": {"tested_on": "CCRF-CEM", "test": "NCI five-dose assay", "conditions": "Leukemia"}, "HL-60(TB)": {"tested_on": "HL-60(TB)", "test": "NCI five-dose assay", "conditions": "Leukemia"}, "MOLT-4": {"tested_on": "MOLT-4", "test": "NCI five-dose assay", "conditions": "MOLT-4, Leukemia"}, "RPMI-8226": {"tested_on": "RPMI-8226", "test": "NCI five-dose assay", "conditions": "RPMI-8226, Leukemia"}, "A549/ATCC": {"tested_on": "A549/ATCC", "test": "NCI five-dose assay", "conditions": "Non-small cell lung cancer"}, "HOP-92": {"tested_on": "HOP-92", "test": "NCI five-dose assay", "conditions": "HOP-92, Non-small cell lung cancer"}, "NCI-H226": {"tested_on": "NCI-H226", "test": "NCI five-dose assay", "conditions": "NCI-H226, Non-small cell lung cancer"}, "NCI-H322M": {"tested_on": "NCI-H322M", "test": "NCI five-dose assay", "conditions": "Non-small cell lung cancer"}, "SF-539": {"tested_on": "SF-539", "test": "NCI five-dose assay", "conditions": "SF-539, CNS cancer"}, "U251": {"tested_on": "U251", "test": "NCI five-dose assay", "conditions": "U251, CNS cancer"}, "M14": {"tested_on": "M14", "test": "NCI five-dose assay", "conditions": "M14, Melanoma"}, "IGROV1": {"tested_on": "IGROV1", "test": "NCI five-dose assay", "conditions": "IGROV1, Ovarian cancer"}, "OVCAR-4": {"tested_on": "OVCAR-4", "test": "NCI five-dose assay", "conditions": "OVCAR-4, Ovarian cancer"}, "A498": {"tested_on": "A498", "test": "NCI five-dose assay", "conditions": "A498, Renal cancer"}, "ACHN": {"tested_on": "ACHN", "test": "NCI five-dose assay", "conditions": "Renal cancer"}, "CAKI-1": {"tested_on": "CAKI-1", "test": "NCI five-dose assay", "conditions": "CAKI-1, Renal cancer"}, "RXF393": {"tested_on": "RXF393", "test": "NCI five-dose assay", "conditions": "RXF393, Renal cancer"}, "SN12C": {"tested_on": "SN12C", "test": "NCI five-dose assay", "conditions": "Renal cancer"}, "MDA/MB-231-ATCC": {"tested_on": "MDA/MB-231-ATCC", "test": "NCI five-dose assay", "conditions": "Breast cancer"}, "HS 578T": {"tested_on": "HS 578T", "test": "NCI five-dose assay", "conditions": "Breast cancer"}, "BT-549": {"tested_on": "BT-549", "test": "NCI five-dose assay", "conditions": "BT-549, Breast cancer"}, "MDA-MB-468": {"tested_on": "MDA-MB-468", "test": "NCI five-dose assay", "conditions": "Homo sapiens, MDA-MB-468, Breast cancer"}, "Leukemia subpanel": {"tested_on": "Leukemia subpanel", "test": "NCI five-dose assay, subpanel mean"}, "[1]": {"tested_on": "Non-small cell lung cancer subpanel", "test": "NCI five-dose assay, subpanel mean"}, "Colon cancer subpanel": {"tested_on": "Colon cancer subpanel", "test": "NCI five-dose assay, subpanel mean"}, "Ovarian cancer subpanel": {"tested_on": "Ovarian cancer subpanel", "test": "NCI five-dose assay, subpanel mean"}, "Renal cancer subpanel": {"tested_on": "Renal cancer subpanel", "test": "NCI five-dose assay, subpanel mean"}, "[2]": {"conditions": "Homo sapiens, 48 h, read-out: LC50 (the source's name)"}, "[3]": {"conditions": "Homo sapiens, read-out: GI50 Conc. per Cell Lines"}}}
{"smiles": "Cc1ccc(C(=O)CSc2nnc(-c3c[nH]c4ccccc34)n2-c2ccccc2)cc1", "note": "[Compound 6h, 2-((5-(1H-Indol-3-yl)-4-phenyl-4H-1,2,4-triazol-3-yl)thio)-1-(p-tolyl)ethenone]", "values": [{"measurement": "CC50", "setting": "CCRF-CEM; [2]", "result": "> 100", "unit": "µM"}, {"measurement": "GI50", "setting": "CCRF-CEM; [3]", "result": 54.4, "unit": "µM"}, {"measurement": "TGI Conc. per Cell Lines", "setting": "CCRF-CEM", "result": "˃100 µM"}, {"measurement": "CC50", "setting": "HL-60(TB); [2]", "result": "> 100", "unit": "µM"}, {"measurement": "GI50", "setting": "HL-60(TB); [3]", "result": 30.8, "unit": "µM"}, {"measurement": "TGI Conc. per Cell Lines", "setting": "HL-60(TB)", "result": "˃100 µM"}, {"measurement": "CC50", "setting": "MOLT-4; [2]", "result": "> 100", "unit": "µM"}, {"measurement": "GI50", "setting": "MOLT-4; [3]", "result": 21.8, "unit": "µM"}, {"measurement": "TGI Conc. per Cell Lines", "setting": "MOLT-4", "result": "˃100 µM"}, {"measurement": "CC50", "setting": "RPMI-8226; [2]", "result": "> 100", "unit": "µM"}, {"measurement": "GI50", "setting": "RPMI-8226; [3]", "result": 29.8, "unit": "µM"}, {"measurement": "TGI Conc. per Cell Lines", "setting": "RPMI-8226", "result": "˃100 µM"}, {"measurement": "CC50", "setting": "A549/ATCC; [2]", "result": "> 100", "unit": "µM"}, {"measurement": "GI50", "setting": "A549/ATCC; [3]", "result": 13.9, "unit": "µM"}, {"measurement": "TGI Conc. per Cell Lines", "setting": "A549/ATCC", "result": 48.50, "unit": "µM"}, {"measurement": "TGI Conc. per Cell Lines", "setting": "HOP-92", "result": 34.70, "unit": "µM"}, {"measurement": "CC50", "setting": "HOP-92; [2]", "result": 82.1, "unit": "µM"}, {"measurement": "GI50", "setting": "HOP-92; [3]", "result": 14.7, "unit": "µM"}, {"measurement": "CC50", "setting": "NCI-H226; [2]", "result": 69.8, "unit": "µM"}, {"measurement": "GI50", "setting": "NCI-H226; [3]", "result": 9.22, "unit": "µM"}, {"measurement": "TGI Conc. per Cell Lines", "setting": "NCI-H226", "result": 26.10, "unit": "µM"}, {"measurement": "CC50", "setting": "NCI-H322M; [2]", "result": "> 100", "unit": "µM"}, {"measurement": "GI50", "setting": "NCI-H322M; [3]", "result": 16.3, "unit": "µM"}, {"measurement": "TGI Conc. per Cell Lines", "setting": "NCI-H322M", "result": 55.50, "unit": "µM"}, {"measurement": "CC50", "setting": "SF-539; [2]", "result": 54.2, "unit": "µM"}, {"measurement": "GI50", "setting": "SF-539; [3]", "result": 15, "unit": "µM"}, {"measurement": "TGI Conc. per Cell Lines", "setting": "SF-539", "result": 28.50, "unit": "µM"}, {"measurement": "CC50", "setting": "U251; Homo sapiens, U-251, 48 h, read-out: LC50 (the source's name)", "result": "> 100", "unit": "µM"}, {"measurement": "GI50", "setting": "U251; Homo sapiens, U-251, read-out: GI50 Conc. per Cell Lines", "result": 23.6, "unit": "µM"}, {"measurement": "TGI Conc. per Cell Lines", "setting": "U251", "result": 65.60, "unit": "µM"}, {"measurement": "CC50", "setting": "M14; [2]", "result": "> 100", "unit": "µM"}, {"measurement": "GI50", "setting": "M14; [3]", "result": 32.1, "unit": "µM"}, {"measurement": "TGI Conc. per Cell Lines", "setting": "M14", "result": ">100", "unit": "µM"}, {"measurement": "CC50", "setting": "IGROV1; Homo sapiens, IGROV-1, 48 h, read-out: LC50 (the source's name)", "result": 61, "unit": "µM"}, {"measurement": "GI50", "setting": "IGROV1; Homo sapiens, IGROV-1, read-out: GI50 Conc. per Cell Lines", "result": 16.1, "unit": "µM"}, {"measurement": "TGI Conc. per Cell Lines", "setting": "IGROV1", "result": 31.30, "unit": "µM"}, {"measurement": "LC50", "setting": "OVCAR-4; Homo sapiens, 48 h", "result": "> 100", "unit": "µM"}, {"measurement": "GI50", "setting": "OVCAR-4; [3]", "result": 14.5, "unit": "µM"}, {"measurement": "TGI Conc. per Cell Lines", "setting": "OVCAR-4", "result": 41.50, "unit": "µM"}, {"measurement": "TGI Conc. per Cell Lines", "setting": "A498", "result": 69.40, "unit": "µM"}, {"measurement": "LC50", "setting": "A498; Homo sapiens, 48 h", "result": "> 100", "unit": "µM"}, {"measurement": "GI50", "setting": "A498; [3]", "result": 22.1, "unit": "µM"}, {"measurement": "LC50", "setting": "ACHN; Homo sapiens, 48 h", "result": 62.3, "unit": "µM"}, {"measurement": "GI50", "setting": "ACHN; [3]", "result": 13.7, "unit": "µM"}, {"measurement": "TGI Conc. per Cell Lines", "setting": "ACHN", "result": 29.20, "unit": "µM"}, {"measurement": "TGI Conc. per Cell Lines", "setting": "CAKI-1", "result": 29.80, "unit": "µM"}, {"measurement": "LC50", "setting": "CAKI-1; Homo sapiens, 48 h", "result": 59.4, "unit": "µM"}, {"measurement": "GI50", "setting": "CAKI-1; [3]", "result": 14.9, "unit": "µM"}, {"measurement": "LC50 (concentration killing 50% of cells)", "setting": "RXF393; Homo sapiens, RXF 393, 48 h", "result": 61.5, "unit": "µM"}, {"measurement": "GI50", "setting": "RXF393; Homo sapiens, RXF 393, read-out: GI50 Conc. per Cell Lines", "result": 13.6, "unit": "µM"}, {"measurement": "TGI Conc. per Cell Lines", "setting": "RXF393", "result": 28.90, "unit": "µM"}, {"measurement": "CC50", "setting": "SN12C; [2]", "result": "> 100", "unit": "µM"}, {"measurement": "GI50", "setting": "SN12C; [3]", "result": 19.4, "unit": "µM"}, {"measurement": "TGI Conc. per Cell Lines", "setting": "SN12C", "result": 48.90, "unit": "µM"}, {"measurement": "TGI Conc. per Cell Lines", "setting": "MDA/MB-231-ATCC", "result": 32.60, "unit": "µM"}, {"measurement": "LC50", "setting": "MDA/MB-231-ATCC; Homo sapiens, 48 h", "result": 69, "unit": "µM"}, {"measurement": "GI50", "setting": "MDA/MB-231-ATCC; [3]", "result": 15.4, "unit": "µM"}, {"measurement": "TGI Conc. per Cell Lines", "setting": "HS 578T", "result": 56.30, "unit": "µM"}, {"measurement": "LC50", "setting": "HS 578T; Homo sapiens, 48 h", "result": "> 100", "unit": "µM"}, {"measurement": "GI50", "setting": "HS 578T; [3]", "result": 14.1, "unit": "µM"}, {"measurement": "TGI Conc. per Cell Lines", "setting": "BT-549", "result": 46.70, "unit": "µM"}, {"measurement": "CC50", "setting": "BT-549; [2]", "result": 87.2, "unit": "µM"}, {"measurement": "GI50", "setting": "BT-549; [3]", "result": 25.1, "unit": "µM"}, {"measurement": "LC50", "setting": "MDA-MB-468; 48 h", "result": 81.3, "unit": "µM"}, {"measurement": "GI50", "setting": "MDA-MB-468; read-out: GI50 Conc. per Cell Lines", "result": 12.8, "unit": "µM"}, {"measurement": "GI50", "setting": "Leukemia subpanel; Homo sapiens, average sensitivity of all cell lines of the Leukemia subpanel, read-out: GI50 Subpanel MID b", "result": 33.5, "unit": "µM"}, {"measurement": "GI50 Selectivity Ratio (MID a/MID b)", "setting": "Leukemia subpanel; Leukemia subpanel", "result": 0.58}, {"measurement": "GI50", "setting": "[1]; Homo sapiens, average sensitivity of all cell lines of the Non-small cell lung cancer subpanel, read-out: GI50 Subpanel MID b", "result": 14.9, "unit": "µM"}, {"measurement": "GI50 Selectivity Ratio (MID a/MID b)", "setting": "[1]; Non-small cell lung cancer subpanel", "result": 1.29}, {"measurement": "GI50 Selectivity Ratio (MID a/MID b)", "setting": "Colon cancer subpanel; Colon cancer subpanel", "result": 0.76}, {"measurement": "GI50", "setting": "Colon cancer subpanel; Homo sapiens, average sensitivity of all cell lines of the Colon cancer subpanel, read-out: GI50 Subpanel MID b", "result": 25.4, "unit": "µM"}, {"measurement": "GI50", "setting": "Ovarian cancer subpanel; Homo sapiens, average sensitivity of all cell lines of the Ovarian cancer subpanel, read-out: GI50 Subpanel MID b", "result": 17.4, "unit": "µM"}, {"measurement": "GI50 Selectivity Ratio (MID a/MID b)", "setting": "Ovarian cancer subpanel; Ovarian cancer subpanel", "result": 1.10}, {"measurement": "GI50", "setting": "Renal cancer subpanel; Homo sapiens, average sensitivity of all cell lines of the Renal cancer subpanel, read-out: GI50 Subpanel MID b", "result": 17, "unit": "µM"}, {"measurement": "GI50 Selectivity Ratio (MID a/MID b)", "setting": "Renal cancer subpanel; Renal cancer subpanel", "result": 1.13}]}
